Assay results as given in the supplement of paper PMC4862054.

Test system: HCC1143
Assay: normalised response (% of control), CellTiter-Glo; higher = more viable cells (100 = DMSO, 0 = benzethonium chloride kill control)
Conditions: incubation time: 72 h
Description: (§1)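 DSRT, 72 h incubation, CellTox Green / CellTiter-Glo readout. Signal is normalised to DMSO and benzethonium chloride controls. Value is the normalised response at dose 3.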

Going from `COc1cc([C@@H]2c3cc4c(cc3[C@@H](O[C@@H]3O[C@@H]5CO[C@@H](c6cccs6)O[C@H]5[C@H](O)[C@H]3O)[C@H]3COC(=O)[C@H]23)OCO4)cc(OC)c1O` [Teniposide] (100 nM) to `C[C@H]1C[C@@H]2[C@H]([C@@H](O)C[C@@]3(C)[C@H]2CC[C@]3(O)C(=O)CO)[C@@]2(C)C=CC(=O)C=C12` [Methylprednisolone] (100 nM), the normalised response rises from 83.2% to 108%.

With `CC[C@H](C)C(=O)O[C@H]1C[C@H](O)C=C2C=C[C@H](C)[C@H](CC[C@@H](O)C[C@@H](O)CC(=O)O)[C@H]21` [Pravastatin] (100 nM) the normalised response was 101%.

Test system: CAL-120
Assay: as above
Conditions: incubation time: 72 h
Description: as §1

Going from `CCc1cncnc1N1CCN(Cc2nc3ccc(C(F)(F)F)cc3[nH]2)CC1` (100 nM) to `COc1cc2c(NC3CCN(C(C)C)CC3)nc(C3CCCCC3)nc2cc1OCCCN1CCCC1` [UNC0638] (100 nM), the normalised response falls from 109% to 101%.

First: COc1cc2nccc(Oc3ccc(NC(=O)Nc4cc(C)on4)c(Cl)c3)c2cc1OC [Tivozanib] (100 nM)
Second: COc1cc([C@@H]2c3cc4c(cc3[C@@H](O[C@@H]3O[C@@H]5CO[C@@H](c6cccs6)O[C@H]5[C@H](O)[C@H]3O)[C@H]3COC(=O)[C@H]23)OCO4)cc(OC)c1O [Teniposide] (100 nM)
The normalised response of the first is lower: 94.2% for the first, 94.7% for the second.

Compared with `O=C(O)C(=O)O.[NH-][C@@H]1CCCC[C@H]1[NH-].[Pt+2]` [Oxaliplatin] (100 nM), `C[C@H]1C[C@@H]2[C@H]([C@@H](O)C[C@@]3(C)[C@H]2CC[C@]3(O)C(=O)CO)[C@@]2(C)C=CC(=O)C=C12` [Methylprednisolone] (100 nM) is lower in normalised response: 103% for the first, 76.9% for the second.

Compared with `CC1=C(/C=C/C(C)=C/C=C/C(C)=C/C(=O)O)C(C)(C)CCC1` [Tretinoin] (100 nM), `CC[C@H](C)C(=O)O[C@H]1C[C@H](O)C=C2C=C[C@H](C)[C@H](CC[C@@H](O)C[C@@H](O)CC(=O)O)[C@H]21` [Pravastatin] (100 nM) is lower in normalised response: 105% for the first, 101% for the second.

Compound `Oc1ncc(N(CCCl)CCCl)c(O)n1` [Uracil mustard] (100 nM) has a normalised response of 103%.

Test system: MDA-MB-453
Assay: normalised response (% of control), CellTox Green; higher = less cell death (100 = DMSO, 0 = benzethonium chloride kill control)
Conditions: incubation time: 72 h
Summary of the method: (§2)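 Each entry is the normalised signal at a single concentration within a series. The series comprised 5 concentrations in 10-fold steps over a compound-specific 10,000-fold range, placed in 384-well plates into which breast cancer cell lines were seeded as 20 µl suspension and incubated 72 h. CellTox Green (485/520 nm) fluorescence and then CellTiter-Glo luminescence were read, with signals normalised per plate to 0.1 % DMSO (100) and a positive kill control (0).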

Going from `CCc1cncnc1N1CCN(Cc2nc3ccc(C(F)(F)F)cc3[nH]2)CC1` (100 nM) to `COc1cc2c(NC3CCN(C(C)C)CC3)nc(C3CCCCC3)nc2cc1OCCCN1CCCC1` [UNC0638] (100 nM), the normalised response rises from 87.5% to 99.2%.

Compared with `COc1cc2nccc(Oc3ccc(NC(=O)Nc4cc(C)on4)c(Cl)c3)c2cc1OC` [Tivozanib] (100 nM), `COc1cc([C@@H]2c3cc4c(cc3[C@@H](O[C@@H]3O[C@@H]5CO[C@@H](c6cccs6)O[C@H]5[C@H](O)[C@H]3O)[C@H]3COC(=O)[C@H]23)OCO4)cc(OC)c1O` [Teniposide] (100 nM) is higher in normalised response: 97.2% for the first, 107% for the second.

Compared with `O=C(O)C(=O)O.[NH-][C@@H]1CCCC[C@H]1[NH-].[Pt+2]` [Oxaliplatin] (100 nM), `C[C@H]1C[C@@H]2[C@H]([C@@H](O)C[C@@]3(C)[C@H]2CC[C@]3(O)C(=O)CO)[C@@]2(C)C=CC(=O)C=C12` [Methylprednisolone] (100 nM) is lower in normalised response: 97.2% for the first, 76.2% for the second.

Compared with `CC1=C(/C=C/C(C)=C/C=C/C(C)=C/C(=O)O)C(C)(C)CCC1` [Tretinoin] (100 nM), `CC[C@H](C)C(=O)O[C@H]1C[C@H](O)C=C2C=C[C@H](C)[C@H](CC[C@@H](O)C[C@@H](O)CC(=O)O)[C@H]21` [Pravastatin] (100 nM) is lower in normalised response: 109% for the first, 98.4% for the second.

`Oc1ncc(N(CCCl)CCCl)c(O)n1` [Uracil mustard] (100 nM) showed a normalised response of 110%.

Test system: MDA-MB-436
Assay: as above
Conditions: incubation time: 72 h
Summary of the method: as §2

Compared with `CCc1cncnc1N1CCN(Cc2nc3ccc(C(F)(F)F)cc3[nH]2)CC1` (100 nM), `COc1cc2c(NC3CCN(C(C)C)CC3)nc(C3CCCCC3)nc2cc1OCCCN1CCCC1` [UNC0638] (100 nM) is lower in normalised response: 99.8% for the first, 94.6% for the second.

Going from `CC1=C(/C=C/C(C)=C/C=C/C(C)=C/C(=O)O)C(C)(C)CCC1` [Tretinoin] (100 nM) to `C[C@H]1C[C@@H]2[C@H]([C@@H](O)C[C@@]3(C)[C@H]2CC[C@]3(O)C(=O)CO)[C@@]2(C)C=CC(=O)C=C12` [Methylprednisolone] (100 nM), the normalised response falls from 106% to 89.9%.

Going from `Oc1ncc(N(CCCl)CCCl)c(O)n1` [Uracil mustard] (100 nM) to `CC[C@H](C)C(=O)O[C@H]1C[C@H](O)C=C2C=C[C@H](C)[C@H](CC[C@@H](O)C[C@@H](O)CC(=O)O)[C@H]21` [Pravastatin] (100 nM), the normalised response falls from 109% to -74.8%.

`COc1cc([C@@H]2c3cc4c(cc3[C@@H](O[C@@H]3O[C@@H]5CO[C@@H](c6cccs6)O[C@H]5[C@H](O)[C@H]3O)[C@H]3COC(=O)[C@H]23)OCO4)cc(OC)c1O` [Teniposide] (100 nM) showed a normalised response of 95.1%.

Test system: CAL-85-1
Assay: as above
Conditions: incubation time: 72 h
Summary of the method: as §2

Going from `CCc1cncnc1N1CCN(Cc2nc3ccc(C(F)(F)F)cc3[nH]2)CC1` (100 nM) to `COc1cc2c(NC3CCN(C(C)C)CC3)nc(C3CCCCC3)nc2cc1OCCCN1CCCC1` [UNC0638] (100 nM), the normalised response rises from 99.3% to 111%.

First: COc1cc2nccc(Oc3ccc(NC(=O)Nc4cc(C)on4)c(Cl)c3)c2cc1OC [Tivozanib] (100 nM)
Second: COc1cc([C@@H]2c3cc4c(cc3[C@@H](O[C@@H]3O[C@@H]5CO[C@@H](c6cccs6)O[C@H]5[C@H](O)[C@H]3O)[C@H]3COC(=O)[C@H]23)OCO4)cc(OC)c1O [Teniposide] (100 nM)
The normalised response of the first is higher: 98.6% for the first, 89.4% for the second.

First: O=C(O)C(=O)O.[NH-][C@@H]1CCCC[C@H]1[NH-].[Pt+2] [Oxaliplatin] (100 nM)
Second: C[C@H]1C[C@@H]2[C@H]([C@@H](O)C[C@@]3(C)[C@H]2CC[C@]3(O)C(=O)CO)[C@@]2(C)C=CC(=O)C=C12 [Methylprednisolone] (100 nM)
The normalised response of the first is lower: 93.8% for the first, 102% for the second.

Compared with `CC1=C(/C=C/C(C)=C/C=C/C(C)=C/C(=O)O)C(C)(C)CCC1` [Tretinoin] (100 nM), `CC[C@H](C)C(=O)O[C@H]1C[C@H](O)C=C2C=C[C@H](C)[C@H](CC[C@@H](O)C[C@@H](O)CC(=O)O)[C@H]21` [Pravastatin] (100 nM) is lower in normalised response: 102% for the first, 97.9% for the second.

For `Oc1ncc(N(CCCl)CCCl)c(O)n1` [Uracil mustard] (100 nM), the normalised response was 114%.

Test system: BT-474
Assay: as above
Conditions: incubation time: 72 h
Summary of the method: as §2

First: CCc1cncnc1N1CCN(Cc2nc3ccc(C(F)(F)F)cc3[nH]2)CC1 (100 nM)
Second: COc1cc2nccc(Oc3ccc(NC(=O)Nc4cc(C)on4)c(Cl)c3)c2cc1OC [Tivozanib] (100 nM)
The normalised response of the first is higher: 97.9% for the first, 96% for the second.

In the case of `O=C(O)C(=O)O.[NH-][C@@H]1CCCC[C@H]1[NH-].[Pt+2]` [Oxaliplatin] (100 nM), the normalised response was 93%.
